Test results taken from ChEMBL document CHEMBL2029275, “Structure-activity relationship of a series of non peptidic RGD integrin antagonists targeting α5β1: part 2” (Bioorg Med Chem Lett, 2012).

Assays:
Integrin alpha-5/beta-1 [1] = molecular target: T1, Integrin alpha-5/beta-1 (Homo sapiens, UniProt P05556+P08648); assay: Antagonist activity at integrin alpha5beta1 in human K562 cells assessed as inhibition of cell adhesion; assay type: functional, cell-based
Integrin alpha-5/beta-1 [2] = molecular target: T1, Integrin alpha-5/beta-1; assay: Binding affinity to integrin alpha5beta1; assay type: protein-complex assay
[3] = molecular target: Fibronectin receptor (Integrin alpha-5/beta-1 and alpha-V/beta-3) (Homo sapiens, UniProt P05106+P05556+P06756+P08648); assay: Antagonist activity at integrin alphavbeta3alpha5beta1 in human A375M cells assessed as inhibition of cell adhesion to fibronectin in presence of Mg2+; assay type: functional, cell-based
Integrin alpha-5/beta-1 [4] = molecular target: T1, Integrin alpha-5/beta-1; assay: Antagonist activity at integrin alpha5beta1 in human A375M cells assessed as inhibition of cell adhesion in presence of Mg2+ and MK-0429; assay type: functional, cell-based
Integrin alpha-V/beta-3 = Integrin alpha-V/beta-3 (Homo sapiens, UniProt P05106+P06756); assay: Antagonist activity at integrin alphaVbeta3 in human A375M cells assessed as cell adhesion to fibrinogen in presence of Mg2+; assay type: functional, cell-based
Sequence of Integrin alpha-V/beta-3 (P05106 27-788 limits assumed): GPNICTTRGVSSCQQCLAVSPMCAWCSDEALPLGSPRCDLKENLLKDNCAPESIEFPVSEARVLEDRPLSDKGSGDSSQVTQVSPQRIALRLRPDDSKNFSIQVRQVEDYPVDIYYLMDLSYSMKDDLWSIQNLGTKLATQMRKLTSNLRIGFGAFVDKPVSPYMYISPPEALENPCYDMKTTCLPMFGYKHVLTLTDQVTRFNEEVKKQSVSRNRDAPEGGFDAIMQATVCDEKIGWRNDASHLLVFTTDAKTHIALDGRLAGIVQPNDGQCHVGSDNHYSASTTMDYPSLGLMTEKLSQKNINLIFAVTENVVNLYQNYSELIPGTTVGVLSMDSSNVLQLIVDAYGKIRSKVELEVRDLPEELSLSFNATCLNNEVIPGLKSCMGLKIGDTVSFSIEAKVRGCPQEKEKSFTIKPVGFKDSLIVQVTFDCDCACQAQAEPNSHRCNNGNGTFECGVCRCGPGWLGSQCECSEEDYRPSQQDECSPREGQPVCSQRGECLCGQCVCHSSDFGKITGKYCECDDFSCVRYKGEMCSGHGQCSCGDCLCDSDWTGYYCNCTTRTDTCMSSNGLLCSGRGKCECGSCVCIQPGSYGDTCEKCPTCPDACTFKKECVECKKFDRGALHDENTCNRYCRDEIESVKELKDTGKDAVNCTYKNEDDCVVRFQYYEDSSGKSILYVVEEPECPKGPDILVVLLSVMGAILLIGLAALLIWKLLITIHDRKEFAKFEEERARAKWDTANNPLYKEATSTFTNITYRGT
Sequence of Integrin alpha-V/beta-3 (P06756 31-889 limits assumed): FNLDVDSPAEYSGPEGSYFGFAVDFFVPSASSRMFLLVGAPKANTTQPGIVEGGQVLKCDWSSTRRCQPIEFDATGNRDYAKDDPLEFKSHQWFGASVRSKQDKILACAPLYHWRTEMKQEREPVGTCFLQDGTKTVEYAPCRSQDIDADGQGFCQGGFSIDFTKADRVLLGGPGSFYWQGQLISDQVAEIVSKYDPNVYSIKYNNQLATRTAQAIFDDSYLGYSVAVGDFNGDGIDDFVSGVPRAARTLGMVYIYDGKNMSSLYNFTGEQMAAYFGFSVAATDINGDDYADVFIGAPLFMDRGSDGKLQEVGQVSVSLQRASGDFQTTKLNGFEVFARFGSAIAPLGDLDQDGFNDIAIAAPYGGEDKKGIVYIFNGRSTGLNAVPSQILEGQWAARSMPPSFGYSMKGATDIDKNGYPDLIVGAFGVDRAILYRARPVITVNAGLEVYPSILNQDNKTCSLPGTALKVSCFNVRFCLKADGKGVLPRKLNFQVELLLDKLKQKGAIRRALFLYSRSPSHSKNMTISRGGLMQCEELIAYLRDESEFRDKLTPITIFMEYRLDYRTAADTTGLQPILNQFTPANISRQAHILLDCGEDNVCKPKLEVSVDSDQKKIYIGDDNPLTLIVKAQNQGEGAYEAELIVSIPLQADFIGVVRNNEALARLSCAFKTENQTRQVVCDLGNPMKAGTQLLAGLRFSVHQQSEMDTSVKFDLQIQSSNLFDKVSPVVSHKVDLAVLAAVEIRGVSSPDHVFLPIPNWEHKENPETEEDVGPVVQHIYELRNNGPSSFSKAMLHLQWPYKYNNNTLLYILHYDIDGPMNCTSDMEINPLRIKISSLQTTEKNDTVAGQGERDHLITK
Sequence of Integrin alpha-V/beta-3 (P06756 891-1048 limits assumed): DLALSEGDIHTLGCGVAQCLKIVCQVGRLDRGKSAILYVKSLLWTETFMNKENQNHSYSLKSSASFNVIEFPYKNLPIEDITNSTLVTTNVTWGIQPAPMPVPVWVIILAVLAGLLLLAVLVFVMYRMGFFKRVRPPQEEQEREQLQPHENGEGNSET

A375M = assay: Selectivity ratio of IC50 for integrin alphavbeta3alpha5beta1-mediated human A375M cells adhesion to fibronectin in absence of MK-0429 to IC50 for integrin alpha5beta1-mediated human A375M cells adhesion to fibronectin in presence of MK-0429; assay type: cell-based
Integrin alpha-5/beta-1 [5] = molecular target: T1, Integrin alpha-5/beta-1; assay: Antagonist activity at integrin alpha5beta1 in human K562 cells assessed as inhibition of cell adhesion in presence of human serum albumin; assay type: functional, cell-based
Rattus norvegicus = species: Rattus norvegicus; assay: Free drug level in rat; assay type: ADME, organism-based; settings: in vivo
Homo sapiens = species: Homo sapiens; assay: Free drug level in human; assay type: ADME, organism-based; settings: in vivo

T1 sequence (P05556 21-798 limits assumed): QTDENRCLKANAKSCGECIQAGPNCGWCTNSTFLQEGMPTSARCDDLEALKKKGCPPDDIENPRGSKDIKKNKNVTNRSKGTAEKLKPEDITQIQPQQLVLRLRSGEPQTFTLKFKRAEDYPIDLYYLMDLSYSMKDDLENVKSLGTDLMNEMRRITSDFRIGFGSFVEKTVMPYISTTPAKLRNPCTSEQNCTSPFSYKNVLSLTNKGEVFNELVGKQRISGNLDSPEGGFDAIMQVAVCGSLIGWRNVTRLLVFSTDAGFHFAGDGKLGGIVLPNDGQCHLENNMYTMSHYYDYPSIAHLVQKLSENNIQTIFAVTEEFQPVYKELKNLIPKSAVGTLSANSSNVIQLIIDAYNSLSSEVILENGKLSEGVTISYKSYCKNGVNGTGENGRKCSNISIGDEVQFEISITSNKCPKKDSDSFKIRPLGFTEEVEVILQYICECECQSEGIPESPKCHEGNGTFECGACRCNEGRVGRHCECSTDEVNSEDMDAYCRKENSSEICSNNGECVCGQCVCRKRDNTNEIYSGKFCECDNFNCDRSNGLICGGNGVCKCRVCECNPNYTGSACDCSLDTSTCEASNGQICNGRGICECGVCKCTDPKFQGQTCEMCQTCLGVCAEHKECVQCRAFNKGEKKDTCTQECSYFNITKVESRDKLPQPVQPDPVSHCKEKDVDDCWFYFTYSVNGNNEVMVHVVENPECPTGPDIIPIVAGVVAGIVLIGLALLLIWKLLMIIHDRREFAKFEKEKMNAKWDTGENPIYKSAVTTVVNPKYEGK
T1 sequence (P08648 42-894 limits assumed): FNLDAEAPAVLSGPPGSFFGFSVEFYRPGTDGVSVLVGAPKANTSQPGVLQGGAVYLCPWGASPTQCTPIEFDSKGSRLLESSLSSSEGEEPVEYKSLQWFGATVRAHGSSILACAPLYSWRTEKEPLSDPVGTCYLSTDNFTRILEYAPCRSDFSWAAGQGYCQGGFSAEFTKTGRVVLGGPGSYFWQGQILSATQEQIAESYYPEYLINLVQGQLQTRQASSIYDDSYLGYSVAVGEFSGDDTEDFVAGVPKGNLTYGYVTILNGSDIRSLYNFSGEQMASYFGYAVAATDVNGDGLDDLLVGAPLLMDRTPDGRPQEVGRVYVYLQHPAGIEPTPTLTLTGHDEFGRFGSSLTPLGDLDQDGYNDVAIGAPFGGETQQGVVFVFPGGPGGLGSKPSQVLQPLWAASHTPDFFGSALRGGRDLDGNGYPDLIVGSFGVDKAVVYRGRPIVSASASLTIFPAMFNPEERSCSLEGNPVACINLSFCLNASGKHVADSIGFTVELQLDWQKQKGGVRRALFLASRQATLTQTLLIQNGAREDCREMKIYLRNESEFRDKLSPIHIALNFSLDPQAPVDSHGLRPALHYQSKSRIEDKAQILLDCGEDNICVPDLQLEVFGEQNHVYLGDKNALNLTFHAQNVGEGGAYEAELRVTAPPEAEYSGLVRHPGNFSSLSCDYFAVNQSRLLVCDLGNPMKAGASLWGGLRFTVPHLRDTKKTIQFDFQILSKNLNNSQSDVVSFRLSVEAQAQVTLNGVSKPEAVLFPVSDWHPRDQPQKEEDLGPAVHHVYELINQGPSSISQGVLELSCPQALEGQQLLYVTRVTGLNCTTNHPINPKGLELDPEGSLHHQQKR
T1 sequence (P08648 895-1049 limits assumed): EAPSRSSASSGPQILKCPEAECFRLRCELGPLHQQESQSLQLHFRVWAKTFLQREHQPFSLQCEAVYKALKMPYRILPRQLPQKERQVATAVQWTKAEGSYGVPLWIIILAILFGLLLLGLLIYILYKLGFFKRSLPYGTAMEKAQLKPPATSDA

Row | SMILES | IC50 (Integrin alpha-5/beta-1 [1]) | IC50 (Integrin alpha-5/beta-1 [2]) | IC50 [3] | IC50 (Integrin alpha-5/beta-1 [4]) | IC50 (Integrin alpha-V/beta-3) | IC50 (Integrin alpha-5/beta-1 [5]) | Drug uptake(free) (Rattus norvegicus) | Drug uptake(free) (Homo sapiens) | Ratio IC50 (A375M)
1 | CNc1cccc(CCCc2ccc(C[C@H](NC(=O)c3c(Cl)cccc3Cl)C(=O)O)cc2)n1 | 46 nM | 8 nM | – | – | – | – | – | – | –
2 | CNc1cccc(CCOc2ccc(C[C@H](NC(=O)c3c(C)noc3C)C(=O)O)cc2)n1 | – | – | – | – | – | – | 3.8% | – | –
3 | CNc1cccc(CCOc2ccc(C[C@H](NC(=O)c3c(C)cc(C)cc3C)C(=O)O)cc2)n1 | 22 nM | 1 nM | 380 nM | 57 nM | 370 nM | 1500 nM | 0.5% | – | 6.7
4 | CNc1cccc(CCOc2ccc(C[C@H](NC(=O)c3c(Cl)cccc3Cl)C(=O)O)cc2)n1 | 7 nM | < 1 nM | 230 nM | 97 nM | 230 nM | 170 nM | 1.1% | 1% | 2.3
5 | COc1ccc([C@H](CC(=O)O)N2CCN(CCCc3ccc4c(n3)NCCC4)C2=O)cn1 | 4600 nM | – | 810 nM | 2200 nM | 0.3 nM | – | – | – | 0.4
6 | CNc1cccc(CCCc2ccc(C[C@H](NC(=O)c3c(Cl)cccc3Cl)C(=O)O)nc2)n1 | 110 nM | 9 nM | – | – | – | – | – | – | –
7 | CCc1cc(F)ccc1C(=O)N[C@@H](Cc1ccc(OCCc2cccc(NC)n2)cc1)C(=O)O | 24 nM | 4 nM | 340 nM | 200 nM | 340 nM | 5000 nM | 0.4% | – | 1.7
8 | CNc1cccc(CCOc2c(C)cc(C[C@H](NC(=O)c3c(Cl)cccc3Cl)C(=O)O)cc2C)n1 | 610 nM | 21 nM | 8800 nM | 5800 nM | 8800 nM | – | – | – | 1.5
9 | CNc1cccc(CCOc2ccc(C[C@H](NC(=O)c3ccc(F)cc3Cl)C(=O)O)cc2)n1 | 33 nM | 2 nM | 440 nM | 210 nM | 440 nM | 11000 nM | 0.3% | 0.2% | 2.1
10 | CNc1cccc(CCOc2ccc(C[C@H](NC(=O)c3c(Cl)cccc3Cl)C(=O)O)cn2)n1 | 110 nM | 6 nM | 1200 nM | 570 nM | 1200 nM | – | – | – | 2.1
11 | CNc1cccc(CCCc2ccc(C[C@H](NC(=O)c3c(Cl)cccc3Cl)C(=O)O)cn2)n1 | 76 nM | 5 nM | – | – | – | – | – | – | –
12 | O=C(N[C@@H](Cc1ccc2oc(CCNc3ccccn3)cc2c1)C(=O)O)c1c(Cl)cccc1Cl | 4000 nM | 890 nM | – | – | – | – | – | – | –
13 | CNc1cccc(CCOc2ccc(C[C@H](NC(=O)c3ccccc3Cl)C(=O)O)cc2)n1 | 42 nM | 3 nM | 540 nM | 240 nM | 520 nM | > 26000 nM | 0.5% | 0.4% | 2.2
14 | O=C(N[C@@H](Cc1cccc(OCCCCNc2ccccn2)c1)C(=O)O)c1c(Cl)cccc1Cl | 83000 nM | 1900 nM | – | – | – | – | – | – | –
15 | CNc1cccc(CCOc2ccc(C[C@H](NC(=O)C3(C)CCCCC3)C(=O)O)cc2)n1 | 39 nM | – | 830 nM | 480 nM | 830 nM | 7500 nM | 0.9% | 0.25% | 1.8
16 | CNc1cccc(CCCc2csc(C[C@H](NC(=O)c3c(Cl)cccc3Cl)C(=O)O)c2)n1 | 400 nM | 180 nM | – | – | – | – | – | – | –

Continued, in another order:

Row | IC50 (Integrin alpha-5/beta-1 [1]) | IC50 (Integrin alpha-5/beta-1 [2]) | IC50 [3] | IC50 (Integrin alpha-5/beta-1 [4]) | IC50 (Integrin alpha-V/beta-3) | IC50 (Integrin alpha-5/beta-1 [5]) | Drug uptake(free) (Rattus norvegicus) | Drug uptake(free) (Homo sapiens) | SMILES | Ratio IC50 (A375M)
17 | 820 nM | 130 nM | 8300 nM | 6500 nM | 8300 nM | > 100000 nM | – | – | CNc1cccc(CCOc2ccc(C[C@H](NC(=O)c3ccc(F)cc3OC)C(=O)O)cc2)n1 | 1.3
18 | 39 nM | 3 nM | 510 nM | 250 nM | 520 nM | 7700 nM | 0.4% | – | CNc1cccc(CCOc2ccc(C[C@H](NC(=O)c3ccc(F)cc3C3CC3)C(=O)O)cc2)n1 | 2
19 | 47 nM | 2 nM | 330 nM | 76 nM | 290 nM | – | – | – | CNc1cccc(CCOc2ccc(C[C@H](NC(=O)c3c(Cl)cccc3Cl)C(=O)O)cc2F)n1 | 4.3
20 | 20000 nM | – | – | – | – | – | – | – | O=C(N[C@@H](Cc1cccc(OCCCNc2ccccn2)c1)C(=O)O)c1c(Cl)cccc1Cl | –
21 | 120 nM | 11 nM | 2500 nM | 610 nM | 2600 nM | – | – | – | O=C(N[C@@H](Cc1ccc(OCCCNc2ccccn2)cc1)C(=O)O)c1c(Cl)cccc1Cl | 4.2
22 | 2500 nM | 82 nM | – | – | – | – | – | – | O=C(N[C@@H](Cc1ccc(OCCNc2ccccn2)cc1)C(=O)O)c1c(Cl)cccc1Cl | –
23 | 81 nM | 3 nM | 640 nM | 180 nM | 600 nM | – | – | – | CNc1cccc(CCOc2ccc(C[C@H](NC(=O)c3c(Cl)cccc3Cl)C(=O)O)cc2C)n1 | 3.6
24 | < 23 nM | 1 nM | 400 nM | 90 nM | 400 nM | 420 nM | 2.2% | – | CNc1cccc(CCOc2ccc(C[C@H](NC(=O)c3c(C)cccc3C)C(=O)O)cc2)n1 | 4.5
25 | 71 nM | – | 960 nM | 420 nM | 960 nM | 29000 nM | 0.9% | – | CNc1cccc(CCOc2ccc(C[C@H](NC(=O)C3CCCCC3C)C(=O)O)cc2)n1 (stereo partly specified) | 2.3
26 | > 290000 nM | 5900 nM | – | – | – | – | – | – | O=C(N[C@@H](Cc1cccc(OCCNc2ccccn2)c1)C(=O)O)c1c(Cl)cccc1Cl | –
27 | 510 nM | 110 nM | – | – | – | – | – | – | CNc1cccc(CCOc2csc(C[C@H](NC(=O)c3c(Cl)cccc3Cl)C(=O)O)c2)n1 | –
28 | 52 nM | – | 2900 nM | 2700 nM | 2900 nM | 36000 nM | 0.2% | 0.1% | CNc1cccc(CCOc2ccc(C[C@H](NC(=O)c3sccc3Cl)C(=O)O)cc2)n1 | 1.1
29 | 36 nM | 9 nM | 510 nM | 470 nM | 510 nM | 24000 nM | 0.5% | – | CNc1cccc(CCOc2ccc(C[C@H](NC(=O)c3ccc(F)cc3C)C(=O)O)cc2)n1 | 1.1
30 | 26 nM | 1 nM | 510 nM | 84 nM | 620 nM | – | – | – | CNc1cccc(CCOc2ccc(C[C@H](NC(=O)c3c(Cl)cccc3Cl)C(=O)O)nc2)n1 | 6.1
31 | 19 nM | < 1 nM | 280 nM | 160 nM | 280 nM | 1500 nM | 0.5% | 0.6% | CNc1cccc(CCOc2ccc(C[C@H](NC(=O)c3c(F)cccc3Cl)C(=O)O)cc2)n1 | 1.7
32 | < 4 nM | < 1 nM | 130 nM | 52 nM | 130 nM | 55 nM | 3.3% | 2.4% | CNc1cccc(CCOc2ccc(C[C@H](NC(=O)c3c(Cl)cncc3Cl)C(=O)O)cc2)n1 | 2.6
33 | 430 nM | 49 nM | 7400 nM | 5400 nM | 6700 nM | – | – | – | CNc1cccc(CCOc2ccc(C[C@H](NC(=O)c3ccccc3)C(=O)O)cc2)n1 | 1.4
34 | – | – | 800 nM | 180 nM | 790 nM | – | – | – | CNc1cccc(CCCc2ccc(C[C@H](NC(=O)c3c(Cl)cccc3Cl)C(=O)O)s2)n1 | 4.4
